Source: patent publication US9174952B2, “Substituted 3-thiazoloamino-propionic acid derivatives and their use as pharmaceuticals” (SANOFI, priority 2011, dated 2015)

What follows are compounds tested against T1, Recombinant human cathepsin A (Homo sapiens, UniProt P10619) (assay: Cathepsin A inhibitory activity). Settings: activated recombinant human cathepsin A 833 ng/ml, Bodipy FL-labeled bradykinin substrate 2 μM, pH 5.5, room temperature.
T1 construct: Recombinant human cathepsin A (residues 29-480, with a C-terminal 10-His tag); 10-His (C); purchased R&D Systems 1049-SE
T1 sequence (P10619 29-326 limits assumed): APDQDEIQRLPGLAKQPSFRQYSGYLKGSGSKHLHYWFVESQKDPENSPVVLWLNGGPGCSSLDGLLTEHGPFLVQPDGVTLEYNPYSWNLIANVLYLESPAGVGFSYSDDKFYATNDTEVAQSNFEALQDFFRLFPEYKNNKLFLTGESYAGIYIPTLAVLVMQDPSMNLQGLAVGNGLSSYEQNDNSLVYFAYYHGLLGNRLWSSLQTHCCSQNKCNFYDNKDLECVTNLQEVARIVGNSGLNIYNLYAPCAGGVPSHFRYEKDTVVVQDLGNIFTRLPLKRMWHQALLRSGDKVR
T1 sequence (P10619 327-480 limits assumed): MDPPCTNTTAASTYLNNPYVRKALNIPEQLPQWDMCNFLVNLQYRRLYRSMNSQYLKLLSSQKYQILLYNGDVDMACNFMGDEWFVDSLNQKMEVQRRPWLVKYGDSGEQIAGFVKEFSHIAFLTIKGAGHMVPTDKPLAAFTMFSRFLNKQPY
Format: biochemical
Description: a) Cathepsin A Inhibitory Activity
Recombinant human cathepsin A (residues 29-480, with a C-terminal 10-His tag; R&D Systems, #1049-SE) was proteolytically activated with recombinant human cathepsin L (R&D Systems, #952-CY). Briefly, cathepsin A was incubated at 10 μg/ml with cathepsin L at 1 μg/ml in activation buffer (25 mM 2-(morpholin-4-yl)-ethanesulfonic acid (MES), pH 6.0, containing 5 mM dithiothreitol (DTT)) for 15 min at 37° C. Cathepsin L activity was then stopped by the addition of the cysteine protease inhibitor E-64 (N-(trans-epoxysuccinyl)-L-leucine-4-guanidinobutylamide; Sigma-Aldrich, # E3132; dissolved in activation buffer/DMSO) to a final concentration of 10 μM.
The activated cathepsin A was diluted in assay buffer (25 mM MES, pH 5.5, containing 5 mM DTT) and mixed with the test compound (dissolved in assay buffer containing (v/v) 3% DMSO) or, in the control experiments, with the vehicle in a multiple assay plate. After incubation for 15 min at room temperature, as substrate then bradykinin carrying an N-terminal ®Bodipy FL (4,4-difluoro-5,7-dimethyl-4-bora-3a,4a-diaza-s-indacene-3-propionyl) label (JPT Peptide Technologies GmbH; dissolved in assay buffer) was added to the mixture. The final concentration of cathepsin A was 833 ng/ml and the final concentration of labeled bradykinin 2 μM. After incubation for 15 min at room temperature the reaction was stopped by the addition of stop buffer (130 mM 2-(4-(2-hydroxy-ethyl)-piperazin-1-yl)-ethanesulfonic acid, pH 7.4, containing (v/v) 0.013% ®Triton X-100, 0.13% Coating Reagent 3 (Caliper Life Sciences), 6.5% DMSO and 20 μM ebelactone B (Sigma, # E0886)).
Uncleaved substrate and product were then separated by a microfluidic capillary electrophoresis on a LabChip® 3000 Drug Discovery System (12-Sipper-Chip; Caliper Life Sciences) and quantified by determination of the respective peak areas. Substrate turnover was calculated by dividing product peak area by the sum of substrate and product peak areas, and the enzyme activity and the inhibitory effect of the test compound thus quantified. From the percentage of inhibition of cathepsin A activity observed with the test compound at several concentrations, the inhibitory concentration IC50, i.e. the concentration which effects 50% inhibition of enzyme activity was, calculated.

Row | IC50 | SMILES
1 | 377 nM | O=C(O)C[C@H](NC(=O)c1csc(-c2ccccc2F)n1)c1ccccc1Cl [Example 30, (S)-3-(2-Chloro-phenyl)-3-{[2-(2-fluoro-phenyl)-thiazole-4-carbonyl]-amino}-propionic acid]
2 | 703 nM | O=C(O)C[C@H](NC(=O)c1csc(-c2cccc(Cl)c2)n1)c1ccccc1Cl [Example 31, (S)-3-(2-Chloro-phenyl)-3-{[2-(3-chloro-phenyl)-thiazole-4-carbonyl]-amino}-propionic acid]
3 | 1400 nM | O=C(O)C[C@H](NC(=O)c1csc(-c2ccc(Cl)cc2)n1)c1ccccc1Cl [Example 32, (S)-3-(2-Chloro-phenyl)-3-{[2-(4-chloro-phenyl)-thiazole-4-carbonyl]-amino}-propionic acid]
4 | 3110 nM | O=C(O)C[C@H](NC(=O)c1csc(-c2ccc(C(F)(F)F)cc2)n1)c1ccccc1Cl [Example 33, (S)-3-(2-Chloro-phenyl)-3-{[2-(4-trifluoromethyl-phenyl)-thiazole-4-carbonyl]-amino}-propionic acid]
5 | 313 nM | Cc1ccccc1-c1nc(C(=O)N[C@@H](CC(=O)O)c2ccccc2F)cs1 [Example 34, (S)-3-(2-Fluoro-phenyl)-3-[(2-o-tolyl-thiazole-4-carbonyl)-amino]-propionic acid]
6 | 1480 nM | O=C(O)C[C@H](NC(=O)c1csc(-c2ccccc2)n1)c1ccccc1F [Example 35, (S)-3-(2-Fluoro-phenyl)-3-[(2-phenyl-thiazole-4-carbonyl)-amino]-propionic acid]
7 | 659 nM | O=C(O)C[C@H](NC(=O)c1csc(-c2ccccc2F)n1)c1ccccc1F [Example 36, (S)-3-(2-Fluoro-phenyl)-3-{[2-(2-fluoro-phenyl)-thiazole-4-carbonyl]-amino}-propionic acid]
8 | 14700 nM | O=C(O)C[C@H](NC(=O)c1csc(-c2ccc(C(F)(F)F)cc2)n1)c1ccccc1F [Example 37, (S)-3-(2-Fluoro-phenyl)-3-{[2-(4-trifluoromethyl-phenyl)-thiazole-4-carbonyl]-amino}-propionic acid]
9 | 23300 nM | O=C(O)C[C@H](NC(=O)c1csc(-c2ccc(C(F)(F)F)cc2)n1)c1ccccc1C(F)(F)F [Example 38, (S)-3-(2-Trifluoromethyl-phenyl)-3-{[2-(4-trifluoromethyl-phenyl)-thiazole-4-carbonyl]-amino}-propionic acid]
10 | 807 nM | Cc1ccccc1-c1nc(C(=O)N[C@@H](CC(=O)O)c2cccc(Cl)c2)cs1 [Example 39, (S)-3-(3-Chloro-phenyl)-3-[(2-o-tolyl-thiazole-4-carbonyl)-amino]-propionic acid]
11 | 821 nM | O=C(O)C[C@H](NC(=O)c1csc(-c2ccccc2)n1)c1cccc(Cl)c1 [Example 40, (S)-3-(3-Chloro-phenyl)-3-[(2-phenyl-thiazole-4-carbonyl)-amino]-propionic acid]
12 | 583 nM | O=C(O)C[C@H](NC(=O)c1csc(-c2cccc(Cl)c2Cl)n1)c1cccc(Cl)c1 [Example 41, (S)-3-(3-Chloro-phenyl)-3-{[2-(2,3-dichloro-phenyl)-thiazole-4-carbonyl]-amino}-propionic acid]
13 | 238 nM | O=C(O)C[C@H](NC(=O)c1csc(-c2ccccc2Cl)n1)c1cccc(Cl)c1 [Example 42, (S)-3-(3-Chloro-phenyl)-3-{[2-(2-chloro-phenyl)-thiazole-4-carbonyl]-amino}-propionic acid]
14 | 694 nM | O=C(O)C[C@H](NC(=O)c1csc(-c2ccccc2F)n1)c1cccc(Cl)c1 [Example 43, (S)-3-(3-Chloro-phenyl)-3-{[2-(2-fluoro-phenyl)-thiazole-4-carbonyl]-amino}-propionic acid]
15 | 2980 nM | O=C(O)C[C@H](NC(=O)c1csc(-c2cccc(Cl)c2)n1)c1cccc(Cl)c1 [Example 44, (S)-3-(3-Chloro-phenyl)-3-{[2-(3-chloro-phenyl)-thiazole-4-carbonyl]-amino}-propionic acid]
16 | 3540 nM | O=C(O)C[C@H](NC(=O)c1csc(-c2ccc(Cl)cc2)n1)c1cccc(Cl)c1 [Example 45, (S)-3-(3-Chloro-phenyl)-3-{[2-(4-chloro-phenyl)-thiazole-4-carbonyl]-amino}-propionic acid]
17 | 10500 nM | O=C(O)C[C@H](NC(=O)c1csc(-c2ccc(C(F)(F)F)cc2)n1)c1cccc(Cl)c1 [Example 46, (S)-3-(3-Chloro-phenyl)-3-{[2-(4-trifluoromethyl-phenyl)-thiazole-4-carbonyl]-amino}-propionic acid]
18 | 280 nM | Cc1ccccc1-c1nc(C(=O)N[C@@H](CC(=O)O)c2cccc(F)c2)cs1 [Example 47, (S)-3-(3-Fluoro-phenyl)-3-[(2-o-tolyl-thiazole-4-carbonyl)-amino]-propionic acid]
19 | 955 nM | O=C(O)C[C@H](NC(=O)c1csc(-c2ccccc2)n1)c1cccc(F)c1 [Example 48, (S)-3-(3-Fluoro-phenyl)-3-[(2-phenyl-thiazole-4-carbonyl)-amino]-propionic acid]
20 | 724 nM | O=C(O)C[C@H](NC(=O)c1csc(-c2ccccc2F)n1)c1cccc(F)c1 [Example 49, (S)-3-(3-Fluoro-phenyl)-3-{[2-(2-fluoro-phenyl)-thiazole-4-carbonyl]-amino}-propionic acid]
21 | > 10000 nM | O=C(O)C[C@H](NC(=O)c1csc(-c2ccc(C(F)(F)F)cc2)n1)c1cccc(F)c1 [Example 50, (S)-3-(3-Fluoro-phenyl)-3-{[2-(4-trifluoromethyl-phenyl)-thiazole-4-carbonyl]-amino}-propionic acid]
22 | 457 nM | O=C(O)C[C@H](NC(=O)c1nc(-c2ccccc2)cs1)c1ccc(F)cc1 [Example 51, (S)-3-(4-Fluoro-phenyl)-3-[(4-phenyl-thiazole-2-carbonyl)-amino]-propionic acid]
23 | 2860 nM | COc1cccc([C@H](CC(=O)O)NC(=O)c2csc(-c3ccccc3)n2)c1 [Example 52, (S)-3-(3-Methoxy-phenyl)-3-[(2-phenyl-thiazole-4-carbonyl)-amino]-propionic acid]
24 | 1750 nM | O=C(O)C[C@H](NC(=O)c1nc(-c2ccccc2)cs1)c1ccccc1F [Example 53, (S)-3-(2-Fluoro-phenyl)-3-[(4-phenyl-thiazole-2-carbonyl)-amino]-propionic acid]
25 | 303 nM | Cc1ccccc1-c1nc(C(=O)N[C@@H](CC(=O)O)c2ccc(F)cc2)cs1 [Example 54, (S)-3-(4-Fluoro-phenyl)-3-[(2-o-tolyl-thiazole-4-carbonyl)-amino]-propionic acid]
26 | 542 nM | O=C(O)C[C@H](NC(=O)c1nc(-c2ccccc2)cs1)c1cccc(F)c1 [Example 55, (S)-3-(3-Fluoro-phenyl)-3-[(4-phenyl-thiazole-2-carbonyl)-amino]-propionic acid]
27 | 1050 nM | O=C(O)C[C@H](NC(=O)c1csc(-c2ccccc2F)n1)c1ccc(F)cc1 [Example 56, (S)-3-(4-Fluoro-phenyl)-3-{[2-(2-fluoro-phenyl)-thiazole-4-carbonyl]-amino}-propionic acid]
28 | > 10000 nM | O=C(N[C@H](C(=O)O)C1CCCCC1)c1csc(-c2cccc(Cl)c2)n1 [Example 57, (S)-{[2-(3-Chloro-phenyl)-thiazole-4-carbonyl]-amino}-cyclohexyl-acetic acid]
29 | 22000 nM | O=C(N[C@@H](Cc1ccc(Cl)cc1)C(=O)O)c1csc(-c2ccccc2)n1 [Example 58, (S)-3-(4-Chloro-phenyl)-2-[(2-phenyl-thiazole-4-carbonyl)-amino]-propionic acid]
30 | 976 nM | COc1ccc([C@H](CC(=O)O)NC(=O)c2csc(-c3ccccc3)n2)cc1 [Example 59, (S)-3-(4-Methoxy-phenyl)-3-[(2-phenyl-thiazole-4-carbonyl)-amino]-propionic acid]
